pEC50: −log10 of the molar value.
Assays:
[1] = system: L4 larvae of Dirofilaria immitis; assay: microbe, parasite or virus in culture; format: cell-based; settings: 72 h, read-out: MIC100 (lowest dose that results in complete loss of motility)
[2] = system: Dirofilaria immitis microfilariae; assay: Microfilaricidal activity against Dirofilaria immitis microfilariae in 96-well plates; format: cell-based; settings: in Canis lupus familiaris, read-out: EC50 (half maximal effective concentration), microfilaricidal activity

`C[C@@H](CN1CCN(c2ccc(OC(F)(F)F)cc2)CC1)C(=O)N1CCC(Nc2ccc([N+](=O)[O-])c(C(F)(F)F)c2)CC1` [Example 1037] showed an MIC [1] of less than 5 µM and a pEC50 [2] greater than 5.00.

Source: patent publication US20170196854A1, “USE OF ANTHELMINTIC AGENTS AGAINST DIROFILARIA IMMITIS” (INTERVET INTERNATIONAL B.V., priority 2014, published 2017)
